Each structure is given as a SMILES string. Calls of active or inactive are those of the source. A value given as a limit tells only on which side of the number the result lay.

In ChEMBL document CHEMBL1201862, “PubChem BioAssay data set” (2004) one finds IC50, EC50 and AC50 data, which are given here for 15 molecules.

For experiment [1], the target named is DNA dC->dU-editing enzyme APOBEC-3G (Homo sapiens, UniProt Q9HC16). Description: Dose Response confirmation of small molecule APOBEC3G DNA Deaminase Inhibitors via a fluorescence-based single-stranded DNA deaminase assay. [Related pubchem assays (depositor defined):AID493012, AID493028]. It counts as functional.
In experiment [2] the target is DNA dC->dU-editing enzyme APOBEC-3A (Homo sapiens, UniProt P31941). As to the kind of experiment: A3A deaminase inhibition for selectivity – biochemical, dose response (AID 504722). It counts as functional.
For experiment [3], the target named is T1, Short transient receptor potential channel 4 (Mus musculus, UniProt Q9QUQ5).
T1 sequence (Q9QUQ5 whole entry): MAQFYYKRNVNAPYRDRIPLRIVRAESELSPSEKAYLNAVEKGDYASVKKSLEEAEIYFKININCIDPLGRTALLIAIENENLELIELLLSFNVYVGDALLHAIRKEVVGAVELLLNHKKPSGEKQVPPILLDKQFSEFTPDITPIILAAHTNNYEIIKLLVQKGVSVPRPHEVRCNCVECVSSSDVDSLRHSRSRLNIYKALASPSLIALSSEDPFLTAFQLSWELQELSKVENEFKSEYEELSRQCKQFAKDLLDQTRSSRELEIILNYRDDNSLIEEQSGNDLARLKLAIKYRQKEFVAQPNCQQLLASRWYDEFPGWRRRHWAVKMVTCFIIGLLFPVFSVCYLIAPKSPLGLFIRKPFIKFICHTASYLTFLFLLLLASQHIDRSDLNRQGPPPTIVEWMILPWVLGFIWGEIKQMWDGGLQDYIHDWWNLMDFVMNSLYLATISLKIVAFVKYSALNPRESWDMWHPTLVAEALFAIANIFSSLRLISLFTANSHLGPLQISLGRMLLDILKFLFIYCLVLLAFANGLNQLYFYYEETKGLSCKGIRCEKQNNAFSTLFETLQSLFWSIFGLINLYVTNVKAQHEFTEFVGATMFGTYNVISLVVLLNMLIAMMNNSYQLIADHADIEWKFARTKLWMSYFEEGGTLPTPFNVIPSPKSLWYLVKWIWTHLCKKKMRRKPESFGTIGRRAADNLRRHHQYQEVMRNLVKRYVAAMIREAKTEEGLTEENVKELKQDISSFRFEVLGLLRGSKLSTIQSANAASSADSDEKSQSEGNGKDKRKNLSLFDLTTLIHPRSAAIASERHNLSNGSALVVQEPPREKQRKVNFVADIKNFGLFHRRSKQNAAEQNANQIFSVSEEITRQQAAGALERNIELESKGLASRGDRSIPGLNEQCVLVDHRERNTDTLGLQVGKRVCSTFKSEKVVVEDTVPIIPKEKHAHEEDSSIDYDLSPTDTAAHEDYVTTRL
Description: calcium entry via TRPC4 opening agents – cell-based, HEK293 TRPC4/mu-opioid, Fluo-4 calcium, dose response (AID 434937). The experiment is classed as functional.

The target of experiment [4] is T2, Leucine aminopeptidase (Plasmodium falciparum 3D7, UniProt Q8IL11).
T2 sequence (Q8IL11 whole entry): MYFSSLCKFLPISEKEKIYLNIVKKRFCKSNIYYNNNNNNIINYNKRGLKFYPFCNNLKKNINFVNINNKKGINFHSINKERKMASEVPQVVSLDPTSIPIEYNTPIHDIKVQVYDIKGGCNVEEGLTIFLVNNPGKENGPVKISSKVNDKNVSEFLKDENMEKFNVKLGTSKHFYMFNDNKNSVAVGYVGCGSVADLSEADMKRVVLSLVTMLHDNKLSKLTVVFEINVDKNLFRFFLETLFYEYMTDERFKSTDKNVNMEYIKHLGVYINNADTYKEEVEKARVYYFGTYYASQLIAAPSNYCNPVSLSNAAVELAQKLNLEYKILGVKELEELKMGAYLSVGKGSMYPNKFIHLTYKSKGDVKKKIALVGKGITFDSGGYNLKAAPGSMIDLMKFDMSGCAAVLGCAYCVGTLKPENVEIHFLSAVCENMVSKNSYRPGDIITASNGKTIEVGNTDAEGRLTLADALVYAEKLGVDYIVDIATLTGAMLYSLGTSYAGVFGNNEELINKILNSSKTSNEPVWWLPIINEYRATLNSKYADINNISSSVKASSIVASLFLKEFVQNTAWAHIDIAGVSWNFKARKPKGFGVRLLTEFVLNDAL
Description: P. falciparum M17LAP inhibitors, primary screen, biochemical, fluorogenic H-Leu-NHMec substrate, 1536-well (AID 1619). It counts as functional.

Experiment [5] has as its target G-protein coupled receptor 55 (Homo sapiens, UniProt Q9Y2T6). As to the kind of experiment: inhibition of LPI-stimulated GPR55 beta-arrestin translocation – imaging, U2OS, beta-arrestin-GFP, LPI agonist, primary screen (AID 2013).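 Further: antagonist potency measured as reduced agonist-driven arrestin aggregation.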 It counts as functional.
Experiment [6] in a line: Luminescence Cell-Based Dose Response to Identify Activators of Luciferase Translation or Activity in H4-C Neuroglioblastoma Cells. [Related pubchem assays: 1829 (Project Summary), 1814 (Primary HTS)]. It counts as functional.
A short description of experiment [7]: Luminescence Cell-Based Dose Response HTS to Identify Activators of Luciferase Translation or Activity in H4 […] Cells. [Related pubchem assays: 1829 (Project Summary), 1814 (Primary HTS)]. The experiment is classed as functional.
A short description of experiment [8]: Luminescence Cell-Based Dose Confirmation to Identify Activators of 5'UTR Stem-Loop Driven Alpha-Synuclein mRNA Translation in H4 Neuroglioblastoma Cells. [Related pubchem assays: 1829 (Project Summary), 1814 (Primary HTS)]. It counts as functional.
The nature of experiment [9]: Luminescence Cell-Based Dose Response to Identify Activators of 5'UTR Stem-Loop Driven Prion Protein mRNA Translation in H4-C Neuroglioblastoma Cells. [Related pubchem assays: 1829 (Project Summary), 1814 (Primary HTS)]. The experiment is classed as functional.
The test system of experiment [10] is H4. As to the kind of experiment: Luminescence Cell-Based Dose Response HTS to Identify Activators of 5'UTR Stem-Loop Driven Prion Protein mRNA Translation in H4 Neuroglioblastoma Cells. [Related pubchem assays: 1829 (Project Summary), 1814 (Primary HTS)]. The experiment is classed as functional. Particulars: Homo sapiens.
Experiment [11] is described as follows: viability of HCT116 lacking mutant beta-catenin – cell-based, human colon tumor, dose response (AID 1045).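 Further: HCT116 colon tumor cells with beta catenin knocked out; cells exposed to compound for 60 hours.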 The experiment is classed as functional.
A short description of experiment [12]: luciferase reporter signal suppression in cells – H4 neuroglioma cells, luminescence, dose response (AID 1990). It counts as functional, cell-based.
The nature of experiment [13]: viability of PTEN-deleted HCT116 cells – cell-based, HCT116 PTEN knockout, dose response (AID 1047).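 Further: HCT116 colon tumor cells with PTEN knocked out; cells exposed to compound for 60 hours before readout; potency for loss of cell viability measured by luminescence.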 The experiment is classed as functional.
The nature of experiment [14]: alpha-synuclein stem-loop luciferase translation blockers – H4 neuroglioma cells, luminescence, confirmation (AID 1988). The experiment is classed as functional, cell-based.
The nature of experiment [15]: Luminescence Cell-Based Dose Response HTS to Identify Inhibitors of 5'UTR Stem-Loop Driven Prion Protein mRNA Translation in H4 Neuroglioblastoma Cells. [Related pubchem assays: 1827 (Project Summary), 1813 (Primary HTS)]. It counts as functional.
Experiment [16] relates to INS1. As to the kind of experiment: INS-1E survival protection against cytokine death – cell-based, luminescence, retest, dose response (AID 449756).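 Further: cell death triggered by IL-1 beta plus TNF-alpha plus IFN-gamma mixture; protective hits raise ATP signal compared with cytokine alone wells.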 It counts as functional. Particulars: Rattus norvegicus.
A short description of experiment [17]: Luminescence Cell-Based Dose Confirmation HTS to Identify Activators of 5'UTR Stem-Loop Driven Alpha-Synuclein mRNA Translation in H4 Neuroglioblastoma Cells. [Related pubchem assays: 1829 (Project Summary), 1814 (Primary HTS)]. It counts as functional.
For experiment [18], the system named is HEK293. Description: cells. It counts as functional, cell-based. Particulars: Homo sapiens.
The subject of experiment [19] is HEK293. As to the kind of experiment: cells. The experiment is classed as functional, cell-based. Particulars: Homo sapiens. This is another data set of the same source.
Experiment [20] concerns HEK293. As to the kind of experiment: NOD2 signaling inhibitors in MDP-stimulated cells, cell-based, uHTS, luminescence (AID 2001). It counts as functional. Particulars: Homo sapiens.
Experiment [21] deals with HEK293. As to the kind of experiment: inhibition of NOD1-driven NF-kB reporter – cell-based, luminescence, uHTS, primary screen (AID 1578). Particulars: Homo sapiens. It counts as functional.
In experiment [22] the target is T3, Rac GTPase-activating protein 1 (Homo sapiens, UniProt Q9H0H5).
T3 sequence (Q9H0H5 whole entry): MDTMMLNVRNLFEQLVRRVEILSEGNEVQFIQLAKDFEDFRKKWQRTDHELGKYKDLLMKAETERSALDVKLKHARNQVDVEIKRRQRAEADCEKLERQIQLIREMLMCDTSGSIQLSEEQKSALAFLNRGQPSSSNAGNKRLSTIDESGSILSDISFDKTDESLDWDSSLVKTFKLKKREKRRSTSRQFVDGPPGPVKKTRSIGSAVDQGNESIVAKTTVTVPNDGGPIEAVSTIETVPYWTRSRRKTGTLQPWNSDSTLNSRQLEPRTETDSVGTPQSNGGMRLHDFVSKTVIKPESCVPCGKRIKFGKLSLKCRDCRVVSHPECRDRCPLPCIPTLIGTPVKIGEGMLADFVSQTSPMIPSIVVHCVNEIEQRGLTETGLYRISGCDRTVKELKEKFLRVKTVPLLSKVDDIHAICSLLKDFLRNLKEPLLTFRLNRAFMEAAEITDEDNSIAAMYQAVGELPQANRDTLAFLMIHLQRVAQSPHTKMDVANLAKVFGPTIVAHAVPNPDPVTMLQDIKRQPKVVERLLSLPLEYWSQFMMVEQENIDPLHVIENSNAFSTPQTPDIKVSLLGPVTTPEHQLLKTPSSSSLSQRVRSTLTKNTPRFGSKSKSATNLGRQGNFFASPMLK
As to the kind of experiment: blockers of MgcRacGAP-driven Rac1 GTP hydrolysis – biochemical, ADP Hunter fluorescence, primary and confirmatory, confirmation (AID 624330). The experiment is classed as functional.

Experiment [23] deals with FAD-linked sulfhydryl oxidase ALR (Homo sapiens, UniProt P55789). As to the kind of experiment: ALR-catalysed DTT oxidation blockers – biochemical, H2O2 detection, luminescence, cherry-pick, dose response (AID 493248).
FAD-linked sulfhydryl oxidase ALR, sequence (P55789 whole entry): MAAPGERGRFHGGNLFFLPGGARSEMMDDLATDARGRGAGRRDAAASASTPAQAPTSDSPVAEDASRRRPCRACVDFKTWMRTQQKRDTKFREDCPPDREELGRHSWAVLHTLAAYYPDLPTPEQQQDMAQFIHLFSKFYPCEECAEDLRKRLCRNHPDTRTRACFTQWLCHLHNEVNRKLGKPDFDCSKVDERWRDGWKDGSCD

DNA dC->dU-editing enzyme APOBEC-3G, sequence (Q9HC16 whole entry): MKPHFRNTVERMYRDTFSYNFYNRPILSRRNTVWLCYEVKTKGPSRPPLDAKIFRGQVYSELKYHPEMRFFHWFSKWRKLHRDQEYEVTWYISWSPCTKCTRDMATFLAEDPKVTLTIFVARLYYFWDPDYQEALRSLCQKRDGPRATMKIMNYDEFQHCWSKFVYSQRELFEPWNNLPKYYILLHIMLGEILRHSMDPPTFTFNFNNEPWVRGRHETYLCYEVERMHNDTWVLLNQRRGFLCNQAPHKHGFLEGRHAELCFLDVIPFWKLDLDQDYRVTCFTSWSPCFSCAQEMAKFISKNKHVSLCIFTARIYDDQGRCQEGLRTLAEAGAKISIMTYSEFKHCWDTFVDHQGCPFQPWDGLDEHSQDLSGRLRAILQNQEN
DNA dC->dU-editing enzyme APOBEC-3A, sequence (P31941 whole entry): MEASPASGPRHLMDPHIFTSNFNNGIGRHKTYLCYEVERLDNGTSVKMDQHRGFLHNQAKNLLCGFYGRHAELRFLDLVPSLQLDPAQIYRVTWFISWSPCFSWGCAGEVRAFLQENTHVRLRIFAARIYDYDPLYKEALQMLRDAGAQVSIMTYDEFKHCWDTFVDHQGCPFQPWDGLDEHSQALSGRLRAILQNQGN
G-protein coupled receptor 55, sequence (Q9Y2T6 whole entry): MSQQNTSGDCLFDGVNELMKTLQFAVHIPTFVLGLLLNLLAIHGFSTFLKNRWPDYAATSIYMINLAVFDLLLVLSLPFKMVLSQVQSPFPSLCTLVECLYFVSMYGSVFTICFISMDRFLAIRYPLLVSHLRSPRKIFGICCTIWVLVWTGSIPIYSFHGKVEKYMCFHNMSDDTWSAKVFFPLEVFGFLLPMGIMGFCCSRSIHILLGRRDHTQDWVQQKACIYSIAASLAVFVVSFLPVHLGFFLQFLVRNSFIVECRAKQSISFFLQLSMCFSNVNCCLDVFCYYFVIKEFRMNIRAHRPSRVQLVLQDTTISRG

Broadly, the IC50 is the midpoint of a concentration-inhibition curve. For the molecule `Nn1c(C2COc3ccccc3O2)n[nH]c1=S` (configuration not stated), the results for the IC50 in [1] and in experiment [2] were 5.09 µM (active) and > 100 µM (inactive), respectively.
What is called EC50 is the concentration at which the effect is half-maximal. As for `CC(C)(C)c1cc(Cl)ccc1OCCn1ccnc1`, the EC50 in experiment [3] is 5.96 µM (active).
On to `NCCCNC(=O)c1cc2ccccc2[nH]1`, for which the EC50 in experiment [3] is 7.5 µM (active).
Take `CCc1nnc(NS(=O)(=O)c2ccc(NC(=O)/C=C/c3ccc(OC)cc3OC)cc2)s1`: the IC50 in experiment [4] is 7.96 µM (active); in [5], 1.44 µM (active).
With `O=C(NC(=S)Nc1nc2c(s1)CCCC2)c1ccccc1`, the EC50 in experiment [6] is 0.341 µM (active); in [7], 0.143 µM (active); in experiment [8], 0.32 µM (active); in experiment [9] it was 0.313 µM (active); in experiment [10], < 0.1 µM (active).
As for `NC(=O)c1sc2nc3c(c(-c4cccs4)c2c1N)CCCC3`, the EC50 in experiment [11] is 118 µM (active); in experiment [12], < 0.1 µM (active); in experiment [13], 36.5 µM (active); in [14], 16.1 µM (active); in experiment [15], 0.125 µM (active).
A word on the AC50: it is the concentration at which the activity in the assay is half-maximal. As for `Cc1cc(C)cc(NC(=O)/C(C#N)=C/c2cn(CC(=O)NCc3ccco3)c3ccccc23)c1`, the EC50 in experiment [11] was 10.6 µM (active); in experiment [13], 8.2 µM (active). Further, in experiment [16], the AC50 was 3.92 µM (active).
For the molecule `COC(=O)C1C(=O)c2c([nH]c(C(=O)OCCSC)c2C)CC1C` (configuration not stated), the EC50 in [6] is 0.963 µM (active); in [7], 21.5 µM (active); in experiment [8] it was > 12 µM (not active); in [9] it was 1.34 µM (active); in experiment [10] it was 31.9 µM (active); in experiment [17] it was < 0.1 µM (active).
As for `Oc1nc(CCl)nc2cc(-c3ccc(F)cc3)sc12`, the values for the IC50 in experiment [18], in experiment [19] and in experiment [20] were > 20 µM (inactive), 12.6 µM (active) and 15.2 µM (inactive), respectively. Moreover, in experiment [21], the EC50 was 13.1 µM (active).
Turning to `Oc1c(C2=CC(C(F)(F)F)=NCCN2)ccc2ccccc12`, the EC50 is 0.345 µM (active) in experiment [6]; < 0.1 µM (inconclusive) in [7]; 0.337 µM (active) in [8]; 0.364 µM (active) in [9]; < 0.1 µM (active) in experiment [10].
Turning to `COC(=O)c1ccccc1NC(=S)NC(NC(=O)c1ccco1)C(Cl)(Cl)Cl` (configuration not stated), the IC50 in experiment [5] was 8.08 µM (active).
In the case of `Cn1c(=O)c2ccccc2n2c(S)nnc12`, the results for the IC50 in experiment [22], in experiment [1] and in experiment [2] were 19.9 µM (active), 3.8 µM (active) and > 100 µM (inactive), respectively.
The corresponding values for `COc1ccc(/C=N/n2c(S)nnc2-c2[nH]nc3c2CCC3)c(OC)c1OC` are 69.9 µM (active), 4.64 µM (active) and > 100 µM (inactive).
`Sc1nnc(C2CCCCC2)n1/N=C/c1ccccn1`: the values for the IC50 in [1] and in [2] were 2.23 µM (active) and > 100 µM (inactive), respectively. Also, in [23], the concentration at half-maximal activity (AC50) is 1.04 µM (active).
With `Cc1cc(Nc2cccc(F)c2)nc(NCc2ccccc2)n1`, the EC50 in [11] was 10.4 µM (active); in experiment [13], 11.1 µM (active). In addition, in [16], the AC50 was 3.9 µM (active).
